Key:
[1] = system: Barnyardgrass (Echinochloa crus-galli); test: Postemergence herbicidal activity, greenhouse spray; format: in vivo; conditions: Echinochloa crus-galli, post-emergence, 336 h, Table 1; rate 250 ppm; visual score after 2 weeks; read-out: Post-emergent % control ECHCG
Summary of the method: (§1)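 Greenhouse-grown plants (7–21 days, ~15 h photoperiod, 23–29 °C day) at first or second true leaf stage were sprayed to full coverage with compound in acetone/water/isopropanol/DMSO/crop oil/Triton X-155 carrier. Controls received carrier alone; plants were sub-irrigated afterwards.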

[2] = system: Cocklebur (Xanthium strumarium); test: as above; format: in vivo; conditions: Xanthium strumarium, post-emergence, 336 h; Table 1; rate 250 ppm; visual score after 2 weeks; read-out: Post-emergent % control XANST
Summary of the method: as §1

[3] = system: Lambsquarter (Chenopodium album); test: as above; format: in vivo; conditions: Chenopodium album, post-emergence, 336 h; Table 1; rate 250 ppm; visual score after 2 weeks; read-out: Post-emergent % control CHEAL
Summary of the method: as §1

[4] = system: Yellow nutsedge (Cyperus esculentus); test: as above; format: in vivo; conditions: Cyperus, post-emergence, 336 h, Table 1; rate 250 ppm; visual score after 2 weeks; read-out: Post-emergent % control CYPES
Summary of the method: as §1

[5] = system: Crabgrass(large) (Digitaria sanguinalis); test: Preemergence herbicidal activity, soil spray; format: in vivo; conditions: Digitaria sanguinalis, pre-emergence, 504 h; Table 5; rate 560 ppm; visual score after 3 weeks; read-out: Pre-emergent % control DIGSA
Excerpt: (§2) Seeds of the desired test plant species were planted in a soil matrix prepared by mixing a loam soil (43 percent silt, 19 percent clay, and 38 percent sand, with a pH of about 8.1 and an organic matter content of about 1.5 percent) and sand in a 70 to 30 ratio. The soil matrix was contained in plastic pots with a surface area of 113 square centimeters. When required to ensure good germination and healthy plants, a fungicide treatment and/or other chemical or physical treatment was applied. A weighed amount, determined by the highest rate to be tested, of each test compound was placed in a 20 mL glass vial and was dissolved in 4 mL of a 97:3 v/v (volume/volume) mixture of acetone and dimethyl sulfoxide to obtain concentrated stock solutions. […] The stock solutions obtained were diluted with a 99.9:0.1 mixture of water and Tween® 155 surfactant to obtain application solutions of known concentration. The solutions containing the highest concentration to be tested were prepared by diluting 2 mL aliquots of the stock solution with 15 mL of the mixture and lower concentrations were prepared by serial dilution of the stock solution. A 2.5 mL aliquot of each solution of known concentration was sprayed evenly onto the soil surface (113 sq. cm) of each seeded pot using a Cornwall 5.0 mL glass syringe fitted with a TeeJet TN-3 hollow cone nozzle to obtain thorough coverage of the soil in each pot. Control pots were sprayed in the same manner with the aqueous mixture. The treated pots and control pots were placed in a greenhouse maintained with an approximate 15 hr photoperiod and temperatures of about 23-29° C. during the day and 22-28° C. during the night. Nutrients and water were added on a regular basis and supplemental lighting was provided with overhead metal halide 1000-Watt lamps as necessary. The water was added by top-irrigation.

[6] = system: Giant Foxtail (Setaria faberi); test: Preemergence herbicidal activity, soil spray; format: in vivo; conditions: Setaria faberi, pre-emergence, 504 h, Table 5; rate 560 ppm; visual score after 3 weeks; read-out: Pre-emergent % control SETFA
Excerpt: as §2

[7] = system: Lambsquarter (Chenopodium album); test: Preemergence herbicidal activity, soil spray; format: in vivo; conditions: Chenopodium album, pre-emergence, 504 h; Table 5; rate 560 ppm; visual score after 3 weeks, 100 complete kill or no germination; read-out: Pre-emergent % control CHEAL
Excerpt: as §2

[8] = system: Pigweed (redroot) (Amaranthus retroflexus); test: Preemergence herbicidal activity, soil spray; format: in vivo; conditions: Amaranthus retroflexus, pre-emergence, 504 h; Table 5; rate 560 ppm; visual score after 3 weeks; read-out: Pre-emergent % control AMARE
Excerpt: as §2

Structure (SMILES)	melting point [°C]	pest or weed control at 250 ppm [1] [%]	pest or weed control at 250 ppm [2] [%]	pest or weed control at 250 ppm [3] [%]	pest or weed control at 250 ppm [4] [%]	pest or weed control at 560 ppm [5] [%]	pest or weed control at 560 ppm [6] [%]	pest or weed control at 560 ppm [7] [%]	pest or weed control at 560 ppm [8] [%]
COC(=O)c1nc(-c2ccc(Cl)cc2Cl)cc(N)c1Cl [Compound 13, Methyl 4-amino-3-chloro-6-(2,4-dichlorophenyl)pyridine-2-carboxylate]	130 to 131	70	100	100	80	90	100	100	100
COC(=O)c1nc(-c2ccc(OC)cc2)cc(N)c1Cl [Compound 17, Methyl 4-amino-3-chloro-6-(4-methoxyphenyl)pyridine-2-carboxylate]	148 to 149	70	100	100	70	100	100	100	100
COC(=O)c1nc(-c2ccc(Cl)cc2)cc(N)c1Cl [Compound 19, Methyl 4-amino-3-chloro-6-(4-chlorophenyl)pyridine-2-carboxylate]	132	80	100	95	90	100	100	100	100

More lines, main results first:

melting point [°C]	Structure (SMILES)	pest or weed control at 250 ppm [1] [%]	pest or weed control at 250 ppm [2] [%]	pest or weed control at 250 ppm [3] [%]	pest or weed control at 250 ppm [4] [%]	pest or weed control at 560 ppm [5] [%]	pest or weed control at 560 ppm [6] [%]	pest or weed control at 560 ppm [7] [%]	pest or weed control at 560 ppm [8] [%]
141	COC(=O)c1nc(-c2cccc(Cl)c2)cc(N)c1Cl [Compound 27, Methyl 4-amino-3-chloro-6-(3-chlorophenyl)pyridine-2-carboxylate]	70	95	95	60	100	100	100	100
149	COC(=O)c1nc(-c2ccc(C(F)(F)F)cc2)cc(N)c1Cl [Compound 28, Methyl 4-amino-3-chloro-6-[4-(trifluoromethyl)phenyl]pyridine-2-carboxylate]	75	100	100	80	100	100	100	100

— US6784137B2, “6-aryl-4-aminopicolinates and their use as herbicides” (Dow AgroSciences LLC, priority 2001, dated 2004)
